The values that follow are results of earlier work, collected in patent US20060024740A1 (priority 2002, published 2006).

One data set relates to Tapesia acuformis. Details: key: S = Sensitive; R = Resistant.
A further data set deals with Tapesia yallundae. More on the design: key: S = Sensitive; R = Resistant.

Turning to `Cc1cc(C2CC2)nc(Nc2ccccc2)n1` [Cyprodinil], the “Fungicide Sensitivity” value with Tapesia acuformis and in the data set with Tapesia yallundae was “S” in each case.

Consider `CC(C)(C)C(O)C(Oc1ccc(Cl)cc1)n1cncn1` (centres unmarked) [Triadimenol, triadimenol], for which the “Fungicide Sensitivity” value in the data set on Tapesia acuformis is “R”; in the data set with Tapesia yallundae it was “R and S”.

As for `CCCN(CCOc1c(Cl)cc(Cl)cc1Cl)C(=O)n1ccnc1` [Prochloraz], the “Fungicide Sensitivity” value was “S and R” with Tapesia acuformis; “R and S” with Tapesia yallundae.

Turning to `COC(=O)Nc1nc2ccccc2[nH]1` [Carbendazim, carbendazim], the “Fungicide Sensitivity” value was “S and R” with Tapesia acuformis; “R” in the data set on Tapesia yallundae.
